# Assay results taken from patent publication US20060014709A1, “Drug or cosmetic” (priority 2002, published 2006).
# Several values for one entry are separate records, joined by “and”; a condition that tells them apart may be missing. Equal entries are not always repeated. Entries after “also recorded” stand apart in the source; their conditions may differ. Marks after values point to notes of the source that are not given here.
# Key:
# Format in all cases: in vivo
# [1] = tested on: male SD rats, obstruction-released kidney (glomerular lesions and tubulointerstitial lesions); test: Obstruction release model after complete obstruction of unilateral ureter for 14 days (Example 2-1); design: key to Tubulointerstitial lesions: level of lesions (quality): summed lesion score: + = 1, ++ = 2, +++ = 3 points; conditions: rat; for Regeneration CD11b^−CD2^+ macrophages to tubulointerstitial lesions, Determination: increase + / Coincidence of two regeneration macrophages being positive / Glomerular lesions: proportion of lesioned glomeruli (%) / Number of regeneration CD11b^+CD2^+ macrophages to glomerular lesions: number of positive cells per glomerulus / Number of regeneration CD11b^−CD2^+ macrophages to tubulointerstitial lesions: number of positive cells (CD11b) in five fields of 200× magnification / Regeneration CD11b^+CD2^+ macrophages to glomerular lesions, Determination: increase = + / Serum creatinine / Tubulointerstitial lesions: level of lesions (quality): 30 mg/kg subcutaneously every day for 21 days, one value per animal
# Excerpt: (§1) That is, the rat was laparotomized under anesthesia with ether and left ureter was ligated with 7-0 Nylon at the height of the margin of lower pole of kidney to close the abdomen. On the 14th day after obstruction, the obstruction was released and urinary passage was reconstructed using a cuff. Thus, after 14 days, the part of ligated obstructed ureter was resected, a polyethylene tube of 25 gages (manufactured by Nippon Sherwood) was used as a cuff and inserted into and retained at the lumen from the cut end of the lower normal ureter, then the cuff was also retained in the expanded upper ureter and each of them was ligated and fixed by 7-0 Nylon to reconstruct the urinary passage. At the same time, the right kidney at the opposite side was excised. After the release of the obstruction, body weight was measured, blood was drawn on the 2nd day, 5th day and 7th day from the release to measure serum creatinine, then the rat was killed under anesthesia and the left obstruction-released kidney was excised.
# With regard to the excised kidney, there were carried out measurements of weight of the kidney, creatinine concentration mg/dl in plasma as an indicator of kidney function and pathological test for the kidney, and also leukocyte cells which infiltrate the obstruction-released kidney were immunopathologically studied with cell surface markers for ED1 macrophages, CD11b (ED8) positive macrophages and CD5 positive lymphocytes. A number of positive cells was expressed as a number of cells per glomerulus from measured numbers of positive cells in five glomeruli, and for a number in tubulointerstitial tissue, it was expressed by the total number of cells existing in five fields of 200×magnification. For macrophages, a number of CD11b positive cells existing in glomerulus was considered as a number of CD11b^+CD2^+ macrophages and a case of existing not less than one positive cell per glomerulus was considered as positive (+). In the tubulointerstitial tissue, a number of […] 60 CD11b positive cells was considered as positive (+), or a case of CD11b^−CD2^+ macrophages dominantly increasing. Scoring of evaluation of tubulointerstitial lesions was as follows: + gets 1-point as a light lesion; ++ gets 2-point as a moderate lesion; and +++ gets3-point as a severe lesion. For glomerular lesions, when a proportion of lesioned glomeruli was decreased to not more than 40%, and for tubulointerstitial lesions, when a score of the lesions was not more than 4, it was considered as improved.
# For glomerular lesions, by counting glomeruli causing thickening of Bowman's capsule wall and glomerular hyalinosis, a proportion of glomeruli having lesions was calculated. For tubulointerstitial lesions, by qualifying hyperplasia of tubular basement membrane and interstitial fibrosis, levels of the lesions were represented.
# (§2) An in vivo biological test was carried out for the γ-lactone derivative according to the present invention using this model. Bulk powder of a test compound was dissolved in sterile physiological saline together with gum arabic, and concentrations of the test compound and gum arabic were adjusted to 30 mg/mL and 5% respectively. The preparation was administered orally or subcutaneously injected at the dose of 30 mg/kg or 3 mg/kg every day. The administration was conducted for the total 21 days of the obstructed period for 14 days and after release of the obstruction for 7 days.
# For test groups, a group administered single compound group, a group administered both compound group and a control group administered solution of gum arabic were set up and compared for renal functions and morphological evaluations, as well as numbers of ED1, CD5, CD11b positive cells by means of immunopathology.
# [2] = tested on: male SDT rats (spontaneously type II diabetes model), complete skin-excised wounds; test: Complete skin-excised model, wound healing; conditions: SDT rat, 10 mg/kg subcutaneously every day
# Excerpt: Using male SDT rats of 28-30 weeks age, which were a spontaneously type II diabetes model, promoting effect on repair and regeneration in wound healing after complete skin excision were examined according to a partially modified method of Breitbout AS et al. (Ann Plast Surg 1999, 43: 632). That is, an animal was shaved at its back under anesthesia with ether, and skin in 2×2 cm size was excised together with panniculus carnosus in same size to make two complete skin-excised wounds per animal.
# Healings of the wounds were observed on the 1st day, 4th day, 7th day, 12h day, 15th day, 21st day and 28th day from the operation. An area of the wounds was obtained as the product of the average vertical length and the average horizontal length which were measured along with a direction of the longest part in the wound.
# A test compound was dissolved in sterile physiological saline together with gum arabic. Concentrations of the test compound and gum arabic were adjusted to 30 mg/mL and 5% respectively. The preparation was subcutaneously injected at the dose of 10 mg/kg every day. The administration was started on 6 days before the operation and continued to 28 days after the operation.
# [3] = tested on: male SD rats, obstruction-released kidney (glomerular lesions and tubulointerstitial lesions); test: Obstruction release model after complete obstruction of unilateral ureter for 14 days (Example 2-2); design: key to Tubulointerstitial lesions: level of lesions: summed lesion score; + = 1, ++ = 2, +++ = 3; ≤6.5 improved; conditions: rat, 30 mg/kg subcutaneously
# Excerpt: as §1, §2
# For cell surface markers of leukocyte cells which infiltrate the obstruction-released kidney, ED1, CD11b (ED8), CD5 and CD2 were used. […] For CD5^+, a number of not less than 20 per glomerulus was considered as positive. For glomerular lesions, which was characterized by Bowman's capsule wall, glomerular hyalinosis, dilation of urinary space pole and hypertrophy of parietal cells, 50 glomeruli were evaluated to obtain a proportion of pathologic glomeruli. For tubulointerstitial lesions, levels of the lesions were represented by qualifying hyperplasia of tubular basement membrane, tubular enlargement and atrophy and interstitial fibrosis. Scoring was as follows: + gets 1-point as a light lesion; ++ gets 2-point as a moderate lesion; and +++ gets 3-point as a severe lesion. Levels of cell infiltration were evaluated qualitatively according to the above three-point scale. For glomerular lesions, when a proportion of lesioned glomeruli was decreased to not more than 20%, and for tubulointerstitial lesions, when a score of the lesions was not more than 6.5, it was considered as improved.
# Numbers of cells positive for CD11b (ED8), CD2 and CD5 were compared by means of immunopathology, and CD11b^+CD2^+ macrophages were considered as regeneration-promoting macrophages in glomeruli and CD11b^−CD2^+CD5+ macrophages were considered as regeneration-promoting macrophages to tubulointerstitial lesions, and herewith, it was estimated whether each cell group is quantitatively dominant or not.
smiles,measurement,setting,value
"O=C1CCC(F)(C(=O)OCc2ccccc2)O1 (stereo not shown) [compound (II-2), 2-fluoro-5-oxotetrahydrofuran-2-carboxylic acid benzyl ester]",cases with increased regeneration-promoting CD11b^+CD2^+ macrophages to glomerular lesions,[1]; 30 mg/kg subcutaneously,Regeneration-promoting macrophages were increased on both lesions
same,cases with increased regeneration-promoting CD11b^−CD2^+ macrophages to tubulointerstitial lesions,[1]; 30 mg/kg subcutaneously,Regeneration-promoting macrophages were increased on both lesions
same,"Regeneration CD11b^−CD2^+ macrophages to tubulointerstitial lesions, Determination: increase +",[1],+ (a number of not more than 60 CD11b positive cells was considered as positive (+))
same,Coincidence of two regeneration macrophages being positive,[1]; 30 mg/kg,Not coincident; also recorded: Coincident
same,Glomerular lesions: proportion of lesioned glomeruli (%),[1]; 30 mg/kg,32% and 28% and 19% and 18%
same,Number of regeneration CD11b^+CD2^+ macrophages to glomerular lesions: number of positive cells per glomerulus,[1]; 30 mg/kg,0.7 cells per glomerulus and 1.7 cells per glomerulus and 2.3 cells per glomerulus and 1.4 cells per glomerulus
same,Number of regeneration CD11b^−CD2^+ macrophages to tubulointerstitial lesions: number of positive cells (CD11b) in five fields of 200× magnification,[1]; 30 mg/kg,33 cells in five fields of 200× m and 35 cells in five fields of 200× m and 27 cells in five fields of 200× m and 16 cells in five fields of 200× m
same,"Regeneration CD11b^+CD2^+ macrophages to glomerular lesions, Determination: increase = +",[1]; 30 mg/kg,+ (a case of existing not less than one positive cell per glomerulus was considered as positive (+))
same,Serum creatinine,[1]; 30 mg/kg,2.0 mg/dl (2×) and 2.5 mg/dl and 2.3 mg/dl
same,Tubulointerstitial lesions: level of lesions (quality),[1]; 30 mg/kg,4.5 (2×) and 6.5 (2×)
"C[C@@H](OC(=O)[C@]1(Oc2ccc(F)cc2)CCC(=O)O1)c1ccc2ccccc2c1 [compound (I-1), (R)-1-naphthalen-2-ylethyl (S)-2-(4-fluorophenoxy)-5-oxotetrahydrofuran-2-carboxylate]",cases with increased regeneration-promoting CD11b^+CD2^+ macrophages to glomerular lesions,[1]; 30 mg/kg subcutaneously,two of four cases
same,cases with increased regeneration-promoting CD11b^−CD2^+ macrophages to tubulointerstitial lesions,[1]; 30 mg/kg subcutaneously,three of four cases
same,difference in serum creatinine,[1]; 30 mg/kg subcutaneously,no difference
same,pathological improvement of glomerular lesions (cases),[1]; 30 mg/kg subcutaneously,no glomerular lesion was improved
same,pathological improvement of tubulointerstitial lesions (cases),[1]; 30 mg/kg subcutaneously,three of four cases
same,Coincidence of two regeneration macrophages being positive,[1]; 30 mg/kg,Not coincident; also recorded: Coincident
same,Glomerular lesions: proportion of lesioned glomeruli (%),[1]; 30 mg/kg,29% and 39% and 57% and 67%
same,Number of regeneration CD11b^+CD2^+ macrophages to glomerular lesions: number of positive cells per glomerulus,[1]; 30 mg/kg,0.5 cells per glomerulus and 2.0 cells per glomerulus and 0.0 cells per glomerulus and 1.3 cells per glomerulus
same,Number of regeneration CD11b^−CD2^+ macrophages to tubulointerstitial lesions: number of positive cells (CD11b) in five fields of 200× magnification,[1]; 30 mg/kg,24 cells in five fields of 200× m and 140 cells in five fields of 200× m and 59 cells in five fields of 200× m and 41 cells in five fields of 200× m
same,"Regeneration CD11b^+CD2^+ macrophages to glomerular lesions, Determination: increase = +",[1]; 30 mg/kg,+ (a case of existing not less than one positive cell per glomerulus was considered as positive (+))
same,"Regeneration CD11b^−CD2^+ macrophages to tubulointerstitial lesions, Determination: increase +",[1]; 30 mg/kg,+ (a number of not more than 60 CD11b positive cells was considered as positive (+))
same,Serum creatinine,[1]; 30 mg/kg,3.0 mg/dL and 2.7 mg/dL and 2.8 mg/dL and 2.2 mg/dL
same,Tubulointerstitial lesions: level of lesions (quality),[1]; 30 mg/kg,7.0 and 4.0 and 3.0 (2×)
same,Excised wound area (cm^2),[2]; 1st day after complete skin excision,3.38 cm^2
same,Excised wound area (cm^2),[2]; 4th day after complete skin excision,2.10 cm^2
same,Excised wound area (cm^2),[2]; 7th day after complete skin excision,1.45* cm^2
same,Excised wound area (cm^2),[2]; 12th day after complete skin excision,0.56* cm^2
same,Excised wound area (cm^2),[2]; 15th day after complete skin excision,0.51 cm^2
same,Excised wound area (cm^2),[2]; 21st day after complete skin excision,0.40 cm^2
same,Crust formation/number of wound,[2]; 21st day after the operation,0/8
same,crust formation on the surface of repaired wounds (in words),[2]; 28th day,no crust formation occurred
same,Excised wound area (cm^2),[2]; 28th day after complete skin excision,0.18* cm^2
same,Crust formation/number of wound,[2]; 28th day after the operation,0/8
same,promoting effect on wound healing (in words),"[2]; versus the control group, 10 mg/kg","more promoting effect on wound healing at 7th day to 12th day after the operation; also recorded: in 28th day of healing period, it showed promoting effect on wound healing; also recorded: promoting effect on healing of dermis and epidermis including panniculus carnosus"
"O=C1OC(Cl)(C(=O)OCc2ccccc2)c2ccccc21 (stereo not shown) [compound (I-3), 1-chloro-3-oxo-1,3-dihydroisobenzofuran-1-carboxylic acid benzyl ester]",cases in which regeneration-promoting CD11b^+CD2^+ macrophages were predominant in glomeruli,[3],three of four cases
same,cases in which regeneration-promoting CD11b^−CD2^+CD5+ macrophages were predominant in tubulointerstitial lesions,[3],three of four cases
same,difference in serum creatinine,[3],no difference
same,pathological improvement of glomerular lesions (cases),[3],all four cases
same,pathological improvement of tubulointerstitial lesions (cases),[3],two of four cases
same,Coincidence of two regeneration macrophages being positive,"[3]; one value per animal, 30 mg/kg",Coincident
same,Degree of cell infiltration,"[3]; one value per animal, 30 mg/kg",+ and +++
same,Number of regeneration CD11b^+CD2^+ macrophages to glomerular lesions: number of positive cells per glomerulus CD11b^+CD2^+,"[3]; one value per animal, 30 mg/kg",4.3 cells per glomerulus and 1.8 cells per glomerulus (2×) and 0.5 cells per glomerulus
same,"Number of regeneration CD11b^−CD2^+CD5^+ macrophages to tubulointerstitial lesions: number of positive cells in five fields of 200× magnification, CD5^+","[3]; one value per animal, 30 mg/kg",77 cells in five fields of 200× m and 25 cells in five fields of 200× m and 60 cells in five fields of 200× m and 20 cells in five fields of 200× m
same,"Number of regeneration CD11b^−CD2^+CD5^+ macrophages to tubulointerstitial lesions: number of positive cells in five fields of 200× magnification, CD11b^+","[3]; one value per animal, 30 mg/kg",62 cells in five fields of 200× m and 53 cells in five fields of 200× m and 14 cells in five fields of 200× m and 22 cells in five fields of 200× m
same,"Regeneration macrophages to glomerular lesions, Determination Increase +","[3]; one value per animal, 30 mg/kg",+ (a case of existing not less than one positive cell per glomerulus was considered as positive (+))
same,Serum creatinine,"[3]; one value per animal, 30 mg/kg",2.8 mg/dL and 1.4 mg/dL and 2.1 mg/dL and 1.7 mg/dL
same,Tubulointerstitial lesions: level of lesions,"[3]; one value per animal, 30 mg/kg",6.5 and 3.5 and 7.0 and 8.5
same,Glomerular lesions: proportion of lesioned glomeruli (%),"[3]; one value per animal, 50 glomeruli evaluated",<1%
same,"Regeneration CD11b^−CD2^+CD5^+ macrophages to tubulointerstitial lesions, Determination Increase +","[3]; one value per animal, CD11b^+ not more than 60 and CD5^+ not less than 20, 30 mg/kg","+ (For CD5^+, a number of not less than 20 per glomerulus was considered as positive)"
